What was measured:
[1] = target: C-Raf kinase (SEQ. ID NO: 3) (Homo sapiens (Human), UniProt P04049, Y340D/Y341D); experiment: Biochemical Assay for C-Raf (2); settings: Table J, biochemical assay (2); read-out: CRAF (2)
Description: Biochemical Assay for C-Raf (2)
Activity of C-Raf kinase (SEQ. ID NO: 3) was determined spectroscopically using a coupled pyruvate kinase/lactate dehydrogenase assay that continuously monitors the ATP hydrolysis-dependent oxidation of NADH (e.g., Schindler et al., Science, 2000, 289, 1938-1942). Assays were conducted in 384-well plates (25 μL final volume) using 3.84 nM C-Raf (Eurofins), 1.5 units pyruvate kinase, 2.1 units lactate dehydrogenase, 1 mM phosphoenol pyruvate, 0.7 mM NADH, 50 nM MEK (SignalChem), and 1 mM ATP in assay buffer (100 mM Tris, pH 7.5, 15 mM MgCl2, 0.5 mM DTT, 0.1% octyl-glucoside, 0.002% (w/v) BSA, and 0.002% Triton X-100). Inhibition of C-Raf was measured by adding serial diluted test compound (final assay concentration of 1% DMSO). A decrease in absorption at 340 nm was monitored hourly for 4 h at 30° C. on a multi-mode microplate reader (BioTek). The reaction rate was calculated using the 2 to 3 h time frame. The reaction rate at each concentration of compound was converted to percent inhibition using controls (i.e., reaction with no test compound and reaction with a known inhibitor) and IC50 values were calculated by fitting a four-parameter sigmoidal curve to the data using Prism (GraphPad software).

WM3629 cells = experiment: WM3629 Cell Proliferation Assay (2); assay type: cell-based
Description: WM3629 Cell Proliferation Assay (2)
WM3629 cells (#WM3629-01-0001) are obtained from Rockland Immunochemicals Inc (Gilbertsville, PA). Briefly, cells were grown in MCDB 153 medium (Sigma, #M7403, St. Louis, MO) supplemented with 20% Leibovitz's L-15 (ThermoFisher #11415-064, Waltham, MA), 2% heat inactivated fetal bovine serum (ThermoFisher, #A3840001, Waltham, MA), 5 μg/mL Insulin (Bovine Pancreas) (Sigma, #I0516, St. Louis, MO), 1.68 mM Calcium Chloride (Sigma, #C-34006, St. Louis, MO) and 1% Penicillin/Streptomycin/L-Glutamine (ThermoFisher #10378016, Waltham, MA) at 37° C., 5% CO2, and 95% humidity. Cells are expanded until reaching 70-95% confluency at which point they are sub-cultured or harvested for assay use. Using the Beckman Coulter Echo 650, a serial dilution of test compound is dispensed into a 384-well black clear bottom plate in triplicate. One thousand one hundred twenty-five cells are added per well in 50 μL complete growth medium in the 384-well plate. Plates are incubated for 67-72 hours at 37° C., 5% CO2, and 95% humidity. At the end of the incubation, 10 μL of a 440 μM solution of resazurin (Sigma, #199303, St. Louis, MO) in PBS is added to each well of the plate and plates are incubated for an additional 3-6 hours at 37° C., 5% CO2, and 95% humidity. Plates are read on a Synergy2 or equivalent reader (Biotek, Winooski VT) using an excitation of 540 nm and an emission of 600 nm. Data is analyzed using Prism software (GraphPad, San Diego, CA) to calculate IC50 values.

H2405 cells = experiment: H2405 Cell Proliferation Assay (2); assay type: cell-based; settings: Homo sapiens, NCI-H2405
Description: H2405 Cell Proliferation Assay (2)
H2405 cells (catalog #CRL-5994) are obtained from the American Type Culture Collect (ATTC, Manassas, VA). Briefly, cells were grown in RPMI 1640 supplemented with 5% characterized fetal bovine serum (Invitrogen, Carlsbad, CA) and 1% Penicillin/Streptomycin/L-Glutamine at 37° C., 5% CO2, and 95% humidity. Cells are expanded until reaching 70-95% confluency at which point they are sub-cultured or harvested for assay use. A serial dilution of test compound is dispensed into a 384-well black clear bottom plate in triplicate. Seven hundred fifty cells are added per well in 50 μL complete growth medium in the 384-well plate. Plates are incubated for 67-72 h at 37° C., 5% CO2, and 95% humidity. At the end of the incubation, 10 μL of a 440 μM solution of resazurin (Sigma, St. Louis, MO) in PBS is added to each well of the plate and plates are incubated for an additional 5-6 h at 37° C., 5% CO2, and 95% humidity. Plates are read on a Synergy2 or equivalent reader (Biotek, Winooski VT) using an excitation of 540 nm and an emission of 600 nm. Data is analyzed using Prism software (GraphPad, San Diego, CA) to calculate IC50 values

[2] = target: A-Raf kinase (SEQ. ID No: 1) (Homo sapiens (Human), UniProt P10398, Y301D/Y302D); experiment: Biochemical Assay for A-Raf (2); settings: Table J, biochemical assay (2); read-out: ARAF (2)
Summary of the method: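 Coupled pyruvate kinase/lactate dehydrogenase assay with 20 nM A-Raf, 100 nM MEK substrate, 1 mM ATP, pH 7.5 Tris buffer, 1% DMSO. NADH oxidation followed at 340 nm hourly for 4 h at 30 °C, rate taken over 3–4 h. IC50 from four-parameter fit of percent inhibition.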

Chain of A-Raf kinase (SEQ. ID No: 1) (P10398 other isoform, or with tags, fused parts or gaps Y301D (already in the parent)/Y302D (already in the parent)): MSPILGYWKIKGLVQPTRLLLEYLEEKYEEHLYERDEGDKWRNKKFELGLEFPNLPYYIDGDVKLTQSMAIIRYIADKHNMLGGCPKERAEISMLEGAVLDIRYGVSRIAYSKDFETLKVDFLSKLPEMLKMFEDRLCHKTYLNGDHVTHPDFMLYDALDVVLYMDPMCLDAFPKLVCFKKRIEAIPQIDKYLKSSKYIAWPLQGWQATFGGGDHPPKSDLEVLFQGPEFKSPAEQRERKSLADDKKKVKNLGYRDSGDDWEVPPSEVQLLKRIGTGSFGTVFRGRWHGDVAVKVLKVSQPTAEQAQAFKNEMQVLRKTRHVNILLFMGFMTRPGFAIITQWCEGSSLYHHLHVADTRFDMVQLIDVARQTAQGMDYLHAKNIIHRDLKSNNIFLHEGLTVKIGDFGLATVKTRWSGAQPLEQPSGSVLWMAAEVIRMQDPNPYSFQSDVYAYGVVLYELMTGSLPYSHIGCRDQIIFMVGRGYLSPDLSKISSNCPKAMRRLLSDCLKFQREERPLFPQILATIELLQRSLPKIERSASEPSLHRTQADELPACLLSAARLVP
Chain of C-Raf kinase (SEQ. ID NO: 3) (P04049 307-648 Y340D/Y341D): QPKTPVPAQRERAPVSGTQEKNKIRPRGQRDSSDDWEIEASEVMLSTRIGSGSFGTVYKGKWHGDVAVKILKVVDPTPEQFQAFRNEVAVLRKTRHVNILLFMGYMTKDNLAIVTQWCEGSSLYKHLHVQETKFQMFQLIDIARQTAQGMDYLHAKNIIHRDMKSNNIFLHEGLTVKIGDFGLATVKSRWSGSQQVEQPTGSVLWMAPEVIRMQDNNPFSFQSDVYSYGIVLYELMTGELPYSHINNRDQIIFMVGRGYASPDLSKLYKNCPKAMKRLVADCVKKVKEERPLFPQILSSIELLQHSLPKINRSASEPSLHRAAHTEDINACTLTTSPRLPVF

SMILES	IC50 [1] [nM]	IC50 (WM3629 cells) [nM]	IC50 (H2405 cells) [nM]	IC50 [2] [nM]
CNC(=O)c1cc(-c2cc(-c3cc(NC(=O)c4ccnc(C(C)(C)F)c4)ccc3Cl)ccn2)ccn1 [Example 485]	≤ 100	≤ 100	100 to 500	1000 to 10000
Cc1ccc(NC(=O)c2ccnc(C(C)(C)F)c2)cc1-c1cnnc(-c2ccnc(C(N)=O)c2)c1 [Example 486]	≤ 100	≤ 100	500 to 1000	1000 to 10000
CNC(=O)c1cc(-c2cc(-c3cc(NC(=O)c4ccnc(C5(F)CC5)c4)ccc3C)ccn2)ccn1 [Example 487]	≤ 100	≤ 100	≤ 100	100 to 500
Cc1ccc(NC(=O)c2ccnc(C(C)(C)F)c2)cc1-c1cc(-c2ccnc(C(N)=O)c2)ncn1 [Example 488]	≤ 100	≤ 100	100 to 500	500 to 1000
[2H]C([2H])([2H])NC(=O)c1cc(-c2cc(-c3cc(NC(=O)c4ccnc(C(C)(C)F)c4)ccc3C)ccn2)ccn1 [Example 489]	≤ 100	≤ 100	≤ 100	100 to 500
Cc1ccc(NC(=O)c2ccnc(C(C)(C)F)c2)cc1-c1cc(-c2ccnc(C(N)=O)c2)ncc1F [Example 490]	≤ 100	≤ 100	100 to 500	1000 to 10000
CC(C)(F)c1cc(C(=O)Nc2ccc(F)c(-c3ccnc(-c4ccnc(C(N)=O)c4)c3)c2)ccn1 [Example 491]	≤ 100	≤ 100	100 to 500	1000 to 10000
CNC(=O)c1cc(-c2cc(-c3cc(NC(=O)c4cnnc(C(C)(F)F)c4)ccc3C)ccn2)ccn1 [Example 492]	≤ 100	≤ 100	100 to 500	1000 to 10000
[2H]C([2H])([2H])NC(=O)c1cc(-c2cc(-c3cc(NC(=O)c4ccnc(C(C)(C)F)c4)ccc3C)cc(C)n2)ccn1 [Example 493]	≤ 100	≤ 100	100 to 500	1000 to 10000
CNC(=O)c1cc(-c2cc(-c3cc(NC(=O)c4ccnc(C(C)(C)F)n4)ccc3C)ccn2)ccn1 [Example 494]	≤ 100	≤ 100	1000 to 10000	1000 to 10000
CNC(=O)c1cc(-c2cc(-c3cc(NC(=O)c4cnnc(C(C)(C)F)c4)ccc3C)ccn2)ccn1 [Example 495]	≤ 100	≤ 100	100 to 500	500 to 1000
CNC(=O)c1cc(-c2cc(-c3cc(NC(=O)c4ccnc(C5(F)CC5)c4)ccc3C)cc(C)n2)ccn1 [Example 496]	≤ 100	≤ 100	100 to 500	1000 to 10000
CNC(=O)c1cc(-c2cc(-c3cc(NC(=O)c4ccnc(C(C)(C)F)c4)c(F)cc3C)ccn2)ccn1 [Example 497]	100 to 500	≤ 100	100 to 500	1000 to 10000
[2H]C([2H])([2H])NC(=O)c1cc(-c2cc(-c3cc(NC(=O)c4ccnc(C5(F)CC5)c4)ccc3C)cc(C)n2)ccn1 [Example 498]	100 to 500	≤ 100	100 to 500	1000 to 10000
CNC(=O)c1cc(-c2cc(-c3cc(NC(=O)c4ccnc(C(C)(C)F)c4)ncc3C)ccn2)ccn1 [Example 499]	≤ 100	≤ 100	100 to 500	1000 to 10000
Cc1ccc(NC(=O)c2cn(C)nc2C(F)(F)F)cc1-c1cncc(-c2ccnc(NC(=O)C3CC3)c2)c1 [Example 500]	≤ 100	≤ 100	1000 to 10000	1000 to 10000
Cc1ccc(NC(=O)c2ccc(C(F)(F)F)cc2)cc1-c1ccnc(-c2ccnc(NC(=O)C3CC3)c2)c1 [Example 501]	≤ 100	≤ 100	100 to 500	1000 to 10000
Cc1ccc(NC(=O)c2cccc(C(F)(F)F)c2)cc1-c1ccnc(-c2ccnc(NC(=O)C3CC3)c2)c1 [Example 502]	≤ 100	≤ 100	≤ 100	100 to 500
Cc1ccc(NC(=O)c2cc(C(F)(F)F)ccc2F)cc1-c1ccnc(-c2ccnc(NC(=O)C3CC3)c2)c1 [Example 503]	≤ 100	≤ 100	100 to 500	100 to 500

Reference: patent US12319655B2, “RAF kinase inhibitors and methods of use thereof” (Deciphera Pharmaceuticals, LLC, priority 2021, dated 2025)
